Entries after “also recorded” stand apart in the source; their conditions may differ. Like-named read-outs stand apart in the source and are kept apart here.
Experiments:
KIR2DL2/3 [1] = assay: KIR receptor occupancy on cells from KIR2DL2/3+ patients; format: in vivo, human
AML [2] = assay: Phase 1 overall survival of AML patients; format: in vivo, human; conditions: 1 and 3 mg/kg
KIR receptor = conditions: cited from earlier work
AML [3] = conditions: cited from earlier work
[4] = tested on: HLA-Cw3+ and HLA-Cw4+ targets; conditions: cited from earlier work
KIR2DL1 and KIR2DL2/3 [5] = conditions: literature and WO 2006/003179; cited from earlier work
KIR2DS4 = KIR2DS4 (Homo sapiens, UniProt P43632); conditions: cited from earlier work
Chain of KIR2DS4 (P43632 22-304): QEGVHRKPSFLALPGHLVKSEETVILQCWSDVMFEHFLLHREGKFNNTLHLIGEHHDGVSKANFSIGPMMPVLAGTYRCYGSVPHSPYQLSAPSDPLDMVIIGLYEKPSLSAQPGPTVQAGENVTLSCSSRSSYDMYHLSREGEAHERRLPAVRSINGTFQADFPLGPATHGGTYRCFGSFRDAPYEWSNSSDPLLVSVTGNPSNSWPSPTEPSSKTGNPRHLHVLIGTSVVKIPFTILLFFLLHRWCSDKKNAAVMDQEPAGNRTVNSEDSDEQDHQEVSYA

KIR2DS3 = KIR2DS3 (Homo sapiens, UniProt Q14952); conditions: cited from earlier work
Chain of KIR2DS3 (Q14952 22-304): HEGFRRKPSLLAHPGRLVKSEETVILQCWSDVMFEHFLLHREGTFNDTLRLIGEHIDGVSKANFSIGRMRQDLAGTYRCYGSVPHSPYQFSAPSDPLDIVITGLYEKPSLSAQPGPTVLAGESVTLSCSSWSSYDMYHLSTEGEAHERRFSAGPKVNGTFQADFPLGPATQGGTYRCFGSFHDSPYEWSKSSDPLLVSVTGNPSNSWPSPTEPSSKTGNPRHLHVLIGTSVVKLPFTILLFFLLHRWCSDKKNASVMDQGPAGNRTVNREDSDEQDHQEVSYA

KIR2DS1 and KIR2DS2 = conditions: cited from earlier work
KIR2DL2/3 [6] = conditions: cited from earlier work
[7] = WO 2006/003179; cited from earlier work
CD45+ cells = assay: In vivo treatment with 5-aza-cytidine: BM cytotoxicity; conditions: low-dose, long-term treatment; huNSG and non-humanized control mice
BM-derived NK cells = assay: In vivo treatment with 5-aza-cytidine: NK cell phenotype and subsets in BM; design: species or system huNSG mice
[8] = Troetel et al., 1972; cited from earlier work
pediatric BCP-ALL = assay: In vivo treatment with 5-aza-cytidine: leukemic burden in BM; conditions: non-humanized control NSG mice, low-dose regimen
KIR2DL1 and KIR2DL2/3 [9] = assay: KIR binding specificity of anti-KIR mAbs: inhibitory KIR2DL; design: species or system human
NALM-16 cells = assay: In vitro cytotoxicity of sorted KIR+ NKAES cells with KIR blockade; format: cell-based; conditions: 15 μg/ml, NALM-16, E:T ratio 2:1
Procedure: Target cells or cell lines were labeled with 0.5 μM CFSE (Vybrant CFDA SE Cell Tracer Kit®, Invitrogen, Germany) 1 day prior to use. NKAES cells were thawed, cultivated overnight and subsequently sorted into KIR^+ and KIR^− subsets following labeling with anti-CD158a (clone HP3E4 recognizing KIR2DL1/S1/S4), anti-CD158b (clone GL183 recognizing KIR2DL2/S2/L3) and anti-CD158e (clone DX9 recognizing 3DL1). KIR^+ and KIR^− NK cells were used as effector cells and cultured overnight in the presence of 100 IU/ml IL2. Co-incubation with NALM-16 cells was performed in triplicates at ratios between 10:1 and 2:1 for 5 h. Following staining with ARD-Ax350, cells were washed and analyzed. To correct for spontaneously occurring cell death, target cell monoculture controls were included in every experiment. The percentage of specific cytotoxicity was calculated as follows: (% CFSE^+ARD^+ dead targets−% CFSE^+ARD^+ spontaneously dead targets)/(100−% CFSE^+ ARD^+ spontaneously dead targets)×100%.
In vitro cytotoxicity was assayed as described in Example 1. […] Following staining with ARD-Ax350, cells were washed and analyzed.

inhibitory KIR = assay: Lirilumab treatment of huNSG mice: inhibitory KIR expression; format: in vivo; conditions: 250 μg/mouse, preliminary data
Procedure: HuNSG mice were treated 14 days before the injection of leukemia cells with a complex of IL15/IL15Ra. One day prior to blasts injection, NK cells were additionally activated by intravenous injection of polyI:C and IPH2102. On the following day blasts were injected, and after 24 h the extent of tumor burden was quantified using 8-11 color flow cytometry.

BCP-ALL sample P23T = assay: Lirilumab in NSG mice with adoptively transferred KIR-KIRL-matched NK cells: tumor burden; format: in vivo; conditions: P23T blasts, KIR-KIRL-matched activated NK cells, 2250 μg/mouse i.v., 24 h, preliminary data
Procedure: Naïve NSG mice were injected with blasts, followed by the injection of activated NK cells and subsequent intravenous injection of IPH2102 (2250 μg/mouse). Mice were euthanized after 24 h to quantify tumor burden. […] Data depicted in FIGS. 13B and D represent preliminary data performed in a small number of mice. The data provided in Examples 1-4 support the concept that NK cell immune-therapy, ideally performed with KIR-KIRL-mismatched donors, should have a role in the treatment of pediatric BCP-ALL disease.

Question: With “1-7F9: KIR2DL-cross-reactive fully human IgG4 kappa mAb; H chain SEQ ID NO:3, L chain SEQ ID NO:5” as the molecule, how does the receptor occupancy (KIR2DL2/3 [1]; 0.2 mg/kg and 2 mg/kg, 28-day period) read?
Answer: good receptor occupancy throughout the 28-day period

Question: What about the “improvement of OS versus <0.3 mg/kg group” value (AML [2]) of the same molecule?
Answer: ~18 months

Question: What about the “duration of full (>90%) KIR receptor occupancy” value (KIR receptor; 0.075 mg/kg) of the same molecule?
Answer: 1 week

Question: What about the “duration of full (>90%) KIR receptor occupancy” value (KIR receptor; 1 mg/kg) of the same molecule?
Answer: 2 weeks

Question: And the “duration of KIR saturation (>30% KIR occupancy)” value (KIR receptor; 3 mg/kg)?
Answer: 24-32 weeks

Question: And the “duration of full (>90%) KIR receptor occupancy” value (KIR receptor; 3 mg/kg)?
Answer: at least 4 weeks

Question: And the “overall survival (OS)” value (AML [3]; 6 AML patients, dosages of 1 and 3 mg/kg)?
Answer: 29.7 months

Question: And the “overall survival (OS)” value (AML [3]; 16 AML patients, <0.3 mg/kg)?
Answer: 11.8 months

Question: What about the “reconstitution of cell lysis by NK cells against Cw4-positive targets” value ([4]; WO 2005/003168, Example 4) of the same molecule?
Answer: almost completely reconstitutes lysis

Question: What about the “potentiation of NK cell cytolytic activity on HLA-Cw3+ and HLA-Cw4+ targets” value ([4]; WO 2005/003168) of the same molecule?
Answer: strongly potentiate NK cell cytolytic activity

Question: What about the “KIRs bound / recognized” value (KIR2DL1 and KIR2DL2/3 [5]) of the same molecule?
Answer: binds specifically to both KIR2DL1 and KIR2DL2/3

Question: What about the “binding to KIR2DS4” value (KIR2DS4) of the same molecule?
Answer: does not bind to the stimulatory KIR, KIR2DS4; also recorded: none of 1-7F9, lirilumab and 1-4F1 binds to KIR2DS4

Question: What about the “binding to KIR2DS3” value (KIR2DS3) of the same molecule?
Answer: does not bind to the stimulatory KIR, KIR2DS3

Question: And the “binding to KIR2DS1 and KIR2DS2” value (KIR2DS1 and KIR2DS2)?
Answer: bind to KIR2DS1 and KIR2DS2

Question: What about the “blocking of binding of group 1 HLA-C (HLA-Cw3) to KIR2DL2/3” value (KIR2DL2/3 [6]) of the same molecule?
Answer: blocks

Question: What about the IgG4 half-molecule formation [7] of the same molecule?
Answer: did not reveal half-molecule formation

Question: What does the source list for `Nc1ncn([C@@H]2O[C@H](CO)[C@@H](O)[C@H]2O)c(=O)n1` [5-aza-cytidine]?
Answer: BM cytotoxicity: human and murine CD45+ cells (CD45+ cells): statistically insignificant reduction; also recorded: does not exert statistically relevant BM cytotoxicity; expression of inhibitory (KIRs, NKG2A) and activating (NKp44, NKG2D) NK cell receptors (BM-derived NK cells; BM-derived NK cells of huNSG mice, low doses): did not significantly modulate the expression; also recorded: does not significantly alter the expression; numbers of immature NK cell precursors and mature NK cell subsets in BM (BM-derived NK cells; huNSG mice, low-dose long-term treatment): distinctly higher numbers of both immature and mature NK cell subsets; also recorded: clearly higher numbers; also recorded: induces the expression of BM-residing NK cell precursors; half-life [8]: less than 4 h; direct cytotoxic effect on pediatric BCP-ALL (pediatric BCP-ALL): largely excluded; also recorded: does not exert relevant direct cytotoxic effects

Question: With “lirilumab: 1-7F9(S241P) variant, human IgG4 anti-KIR2DL1/2/3 mAb; H chain SEQ ID NO:4, L chain SEQ ID NO:5” as the molecule, how does the KIR receptor occupancy (KIR2DL2/3 [1]; 1 mg/kg, over a 28-day period) read?
Answer: ~100%

Question: What about the “effect of S241P mutation on affinity for KIR2DL1 and KIR2DL2/3” value (KIR2DL1 and KIR2DL2/3 [9]) of the same molecule?
Answer: equalizes the affinity for KIR2DL1 and KIR2DL2/3

Question: And the “specificity and affinity of binding to KIR targets” value (KIR2DL1 and KIR2DL2/3 [9]; inferred from identical CDRs and variable regions)?
Answer: the same as that exhibited by 1-7F9

Question: And the “effect on cytotoxicity of KIR+ NK cells of KIR-KIRL-matched donors” value (NALM-16 cells)?
Answer: distinctly enhanced

Question: What about the “effect on cytotoxicity of KIR+ NK cells of KIR-KIRL-mismatched donors” value (NALM-16 cells) of the same molecule?
Answer: did not respond to inhibitory KIR blockade

Question: What about the “levels of inhibitory KIR expression” value (inhibitory KIR) of the same molecule?
Answer: very low levels; also recorded: barely detectable levels

Question: And the “levels of inhibitory KIR expression” value (inhibitory KIR; listed as lirilumab (IPH2102))?
Answer: negligible

Question: What about the tumor burden (BCP-ALL sample P23T) of the same molecule?
Answer: significant reduction of tumor burden

Question: And the “binding to KIR2DS4” value (KIR2DS4)?
Answer: none of 1-7F9, lirilumab and 1-4F1 binds to KIR2DS4

Question: What about the “binding to KIR2DS1 and KIR2DS2” value (KIR2DS1 and KIR2DS2) of the same molecule?
Answer: bind to KIR2DS1 and KIR2DS2

— patent US11639384B2, “Treatment of pediatric BCP-ALL patients with an anti-KIR antibody” (UNIVERSITY CHILDREN'S HOSPITAL TÜBINGEN, priority 2014, dated 2023)
